Conditions: human gut metagenome, 24 h, 2 µM
Further: call rule not given here.

Bacterial Biotransformation	SMILES
Compound metabolized	OC(CCN1CCCCC1)(c1ccccc1)C1CCCCC1 (stereo not given) [TRIHEXYPHENIDYL]
Compound metabolized	CCCCC1=NC2(CCCC2)C(=O)N1Cc1ccc(-c2ccccc2-c2nnn[nH]2)cc1 [IRBESARTAN]

Assay: (§1) The drug is tested on WLS-220 corresponding to human gut metagenome with ENA study accession number: PRJEB37062 and ENA sample accession number: ERS12561769 for biotransformation under anaerobic condition. The drug concentrations were measured over 9 timepoints collected between 0 and 24 hours of incubation by liquid-chromatography-coupled mass spectrometry (LC–MS)
Conditions: 2 µM

Bacterial Biotransformation	SMILES
Compound NOT metabolized	OC(CCN1CCCCC1)(c1ccccc1)C1CCCCC1 (stereo not given) [TRIHEXYPHENIDYL]
Compound metabolized	CCCCC1=NC2(CCCC2)C(=O)N1Cc1ccc(-c2ccccc2-c2nnn[nH]2)cc1 [IRBESARTAN]

Conditions: human gut metagenome, 24 h, 2 µM
Remark: another data set of the same source

Bacterial Biotransformation	SMILES
Compound metabolized	OC(CCN1CCCCC1)(c1ccccc1)C1CCCCC1 (stereo not given) [TRIHEXYPHENIDYL]
Compound metabolized	CCCCC1=NC2(CCCC2)C(=O)N1Cc1ccc(-c2ccccc2-c2nnn[nH]2)cc1 [IRBESARTAN]

Assay: as §1, with “Z-022” for “WLS-220”, “mouse” for “human”, “ERS12561821” for “ERS12561769”
Conditions: 2 µM

Bacterial Biotransformation	SMILES
Compound metabolized	OC(CCN1CCCCC1)(c1ccccc1)C1CCCCC1 (stereo not given) [TRIHEXYPHENIDYL]
Compound NOT metabolized	CCCCC1=NC2(CCCC2)C(=O)N1Cc1ccc(-c2ccccc2-c2nnn[nH]2)cc1 [IRBESARTAN]

Conditions: human gut metagenome, 24 h, 2 µM
Remark: another data set of the same source

Bacterial Biotransformation	SMILES
Compound NOT metabolized	OC(CCN1CCCCC1)(c1ccccc1)C1CCCCC1 (stereo not given) [TRIHEXYPHENIDYL]
Compound metabolized	CCCCC1=NC2(CCCC2)C(=O)N1Cc1ccc(-c2ccccc2-c2nnn[nH]2)cc1 [IRBESARTAN]

Assay: as §1, with “Z-029” for “WLS-220”, “rat” for “human”, “ERS12561828” for “ERS12561769”
Conditions: 2 µM

Bacterial Biotransformation	SMILES
Compound NOT metabolized	OC(CCN1CCCCC1)(c1ccccc1)C1CCCCC1 (stereo not given) [TRIHEXYPHENIDYL]
Compound NOT metabolized	CCCCC1=NC2(CCCC2)C(=O)N1Cc1ccc(-c2ccccc2-c2nnn[nH]2)cc1 [IRBESARTAN]

Conditions: human gut metagenome, 24 h, 2 µM
Remark: another data set of the same source

Bacterial Biotransformation	SMILES
Compound metabolized	OC(CCN1CCCCC1)(c1ccccc1)C1CCCCC1 (stereo not given) [TRIHEXYPHENIDYL]
Compound metabolized	CCCCC1=NC2(CCCC2)C(=O)N1Cc1ccc(-c2ccccc2-c2nnn[nH]2)cc1 [IRBESARTAN]

Conditions: human gut metagenome, 24 h, 2 µM
Remark: another data set of the same source

Bacterial Biotransformation	SMILES
Compound metabolized	OC(CCN1CCCCC1)(c1ccccc1)C1CCCCC1 (stereo not given) [TRIHEXYPHENIDYL]
Compound metabolized	CCCCC1=NC2(CCCC2)C(=O)N1Cc1ccc(-c2ccccc2-c2nnn[nH]2)cc1 [IRBESARTAN]

Assay: as §1, with “WLS-052” for “WLS-220”, “ERS12561747” for “ERS12561769”
Conditions: 2 µM

Bacterial Biotransformation	SMILES
Compound NOT metabolized	OC(CCN1CCCCC1)(c1ccccc1)C1CCCCC1 (stereo not given) [TRIHEXYPHENIDYL]
Compound metabolized	CCCCC1=NC2(CCCC2)C(=O)N1Cc1ccc(-c2ccccc2-c2nnn[nH]2)cc1 [IRBESARTAN]

Assay: as §1, with “WLS-069” for “WLS-220”, “ERS12561748” for “ERS12561769”
Conditions: 2 µM

Bacterial Biotransformation	SMILES
Compound metabolized	OC(CCN1CCCCC1)(c1ccccc1)C1CCCCC1 (stereo not given) [TRIHEXYPHENIDYL]
Compound metabolized	CCCCC1=NC2(CCCC2)C(=O)N1Cc1ccc(-c2ccccc2-c2nnn[nH]2)cc1 [IRBESARTAN]

Conditions: human gut metagenome, 24 h, 2 µM
Remark: another data set of the same source

Bacterial Biotransformation	SMILES
Compound NOT metabolized	OC(CCN1CCCCC1)(c1ccccc1)C1CCCCC1 (stereo not given) [TRIHEXYPHENIDYL]
Compound metabolized	CCCCC1=NC2(CCCC2)C(=O)N1Cc1ccc(-c2ccccc2-c2nnn[nH]2)cc1 [IRBESARTAN]

Assay: as §1, with “Z-006” for “WLS-220”, “mouse” for “human”, “ERS12561806” for “ERS12561769”
Conditions: 2 µM

Bacterial Biotransformation	SMILES
Compound NOT metabolized	OC(CCN1CCCCC1)(c1ccccc1)C1CCCCC1 (stereo not given) [TRIHEXYPHENIDYL]
Compound metabolized	CCCCC1=NC2(CCCC2)C(=O)N1Cc1ccc(-c2ccccc2-c2nnn[nH]2)cc1 [IRBESARTAN]

Assay: as §1, with “Z-005” for “WLS-220”, “to” for “to human gut”, “ERS12561805” for “ERS12561769”
Conditions: 2 µM

Bacterial Biotransformation	SMILES
Compound metabolized	OC(CCN1CCCCC1)(c1ccccc1)C1CCCCC1 (stereo not given) [TRIHEXYPHENIDYL]
Compound metabolized	CCCCC1=NC2(CCCC2)C(=O)N1Cc1ccc(-c2ccccc2-c2nnn[nH]2)cc1 [IRBESARTAN]

Assay: as §1, with “WLS-350” for “WLS-220”, “ERS12561789” for “ERS12561769”
Conditions: 2 µM

Bacterial Biotransformation	SMILES
Compound NOT metabolized	OC(CCN1CCCCC1)(c1ccccc1)C1CCCCC1 (stereo not given) [TRIHEXYPHENIDYL]
Compound metabolized	CCCCC1=NC2(CCCC2)C(=O)N1Cc1ccc(-c2ccccc2-c2nnn[nH]2)cc1 [IRBESARTAN]

Assay: as §1, with “Z-017” for “WLS-220”, “mouse” for “human”, “ERS12561816” for “ERS12561769”
Conditions: 2 µM

Bacterial Biotransformation	SMILES
Compound NOT metabolized	OC(CCN1CCCCC1)(c1ccccc1)C1CCCCC1 (stereo not given) [TRIHEXYPHENIDYL]
Compound NOT metabolized	CCCCC1=NC2(CCCC2)C(=O)N1Cc1ccc(-c2ccccc2-c2nnn[nH]2)cc1 [IRBESARTAN]

Conditions: human gut metagenome, 24 h, 2 µM
Remark: another data set of the same source

Bacterial Biotransformation	SMILES
Compound metabolized	OC(CCN1CCCCC1)(c1ccccc1)C1CCCCC1 (stereo not given) [TRIHEXYPHENIDYL]
Compound metabolized	CCCCC1=NC2(CCCC2)C(=O)N1Cc1ccc(-c2ccccc2-c2nnn[nH]2)cc1 [IRBESARTAN]

Conditions: human gut metagenome, 24 h, 2 µM
Remark: another data set of the same source

Bacterial Biotransformation	SMILES
Compound metabolized	OC(CCN1CCCCC1)(c1ccccc1)C1CCCCC1 (stereo not given) [TRIHEXYPHENIDYL]
Compound metabolized	CCCCC1=NC2(CCCC2)C(=O)N1Cc1ccc(-c2ccccc2-c2nnn[nH]2)cc1 [IRBESARTAN]

Conditions: human gut metagenome, 24 h, 2 µM
Remark: another data set of the same source

Bacterial Biotransformation	SMILES
Compound NOT metabolized	OC(CCN1CCCCC1)(c1ccccc1)C1CCCCC1 (stereo not given) [TRIHEXYPHENIDYL]
Compound metabolized	CCCCC1=NC2(CCCC2)C(=O)N1Cc1ccc(-c2ccccc2-c2nnn[nH]2)cc1 [IRBESARTAN]

Assay: as §1, with “Z-004” for “WLS-220”, “to” for “to human gut”, “ERS12561804” for “ERS12561769”
Conditions: 2 µM

Bacterial Biotransformation	SMILES
Compound metabolized	OC(CCN1CCCCC1)(c1ccccc1)C1CCCCC1 (stereo not given) [TRIHEXYPHENIDYL]
Compound metabolized	CCCCC1=NC2(CCCC2)C(=O)N1Cc1ccc(-c2ccccc2-c2nnn[nH]2)cc1 [IRBESARTAN]

Conditions: human gut metagenome, 24 h, 2 µM
Remark: another data set of the same source

Bacterial Biotransformation	SMILES
Compound metabolized	OC(CCN1CCCCC1)(c1ccccc1)C1CCCCC1 (stereo not given) [TRIHEXYPHENIDYL]
Compound metabolized	CCCCC1=NC2(CCCC2)C(=O)N1Cc1ccc(-c2ccccc2-c2nnn[nH]2)cc1 [IRBESARTAN]

From ChEMBL document CHEMBL5724914, “Linking interpersonal differences in gut microbiota composition and drug biotransformation activity” (2024)
